Measured values as given in patent US8912146B2, “Derivatives of APF and methods of use” (University of Maryland, Baltimore, priority 2008, dated 2014).
Entries after “also recorded” stand apart in the source; their conditions may differ. Where two headings read alike, the source gives them in different places.

How the values were obtained:
[1] = tested on: APF activity in normal bladder epithelial cells; test: Inhibition of APF antiproliferative activity in as-APF-treated normal bladder epithelial cells (3H-thymidine); format: cell-based, human; conditions: pretreatment, then as-APF (0.25 or 0.025 μM; 25 nM in FIG. 54), normal and/or IC/PBS bladder cells
Procedure: Explanted cells grown from the biopsies of normal controls were plated on Day 0 at 1.5×10^4 cells/well onto a 96-well cell culture plate (VWR 29442-054), in 150 μL/well MEM containing 10% heat-inactivated FBS, 1% antibiotic/antimycotic solution, and 1% L-glutamine (all from Sigma), serum starved on Day 1, and treated with varying concentrations of D-pipecolic acid diluted in phosphate buffered saline (PBS) for 2 hours at 37° C. in a 5% CO2 atmosphere. […] The cell contents were then harvested and methanol-fixed onto glass fiber filter paper, and the amount of radioactivity incorporated was determined. Significance of the difference in mean values between groups was determined by an analysis of variance.
IC/PBS cells were incubated with varying concentrations of two derivatives shown to inhibit APF activity in normal bladder cells—GalGalNAc-TV(D-pipecolic acid) AAVVVA (SEQ ID NO:14) and GalGalNAc-TV (D-proline)AAVVVA (SEQ ID NO:27). Cell proliferation was determined by ^3H-thymidine incorporation; gene expression by quantitative RT-PCR; specific protein expression by Western blot analysis; tight junction formation by confocal immunofluorescence microscopy; and paracellular permeability by ^14C-mannitol and ^3H-inulin flux between confluent cells on Transwell plates. Significance of the difference in mean values between groups was determined by an analysis of variance for each assay. […]

[2] = tested on: primary normal human bladder epithelial cells; test: 3H-thymidine incorporation (antiproliferative activity) in primary normal bladder epithelial cells; format: cell-based
Procedure: Cell Culture. Cystoscopy was performed under general anesthesia, and 4-mm^2 pieces of transitional epithelium with submucosal bladder tissue were obtained for the growth of primary bladder epithelial cells, as previously described (Keay et al., 1996; 2004). Primary normal bladder epithelial cells were propagated in DMEM-F12 (Media-Tech, Herndon Va.) with 10% heat-inactivated fetal bovine serum (FBS), 1% antibiotic/antimycotic solution, 1% L-glutamine, 0.25 units/mL insulin (all from Sigma, St. Louis, Mo.), and 5 ng/mL hEGF (R&D Systems, Minneapolis, Minn.) at 37° C. in a 5% CO2 atmosphere and characterized by binding of AE-1/AE-3 pancytokeratin antibodies (Signet, Dedham, Mass.).
^3H-Thymidine Incorporation. Cell proliferation was measured by ^3H-thymidine incorporation into explanted normal human bladder epithelial cells, plating 1.5×10^4 cells/well onto a 96 well cell culture plate (VWR 29442-054), in 150 ul/well MEM containing 10% heat inactivated FBS, 1% antibiotic/antimycotic solution, and 1% L-glutamine (all from Sigma), resulting in a doubling time of 48-72 hours, as previously described (Keay et al., 1996; 2004). Each purified lyophilized synthetic APF congener was resuspended in acetonitrile/distilled water (1:1), and applied to the cells in serum-free MEM (containing only L-glutamine and antibiotics/antimycotics); cell controls received acetonitrile/distilled water diluted in serum-free MEM alone. Cells were then incubated at 37° C. in a 5% CO2 atmosphere for 48 hours. The cell contents harvested and methanol-fixed onto glass fiber filter paper, and the amount of radioactivity incorporated determined. Significant inhibition of ^3H-thymidine incorporation was defined as a mean decrease in counts per minute of greater than 2 standard deviations from the mean of control cells for each plate. Inhibition of cell proliferation was determined from a semi-log plot of dose-response for each APF derivative; IC50 was determined as the concentration of each derivative that caused a mean 50% inhibition of thymidine incorporation as compared to the mean of untreated cell controls.
Statistical Analysis. The thymidine incorporation (APF biological activity) assay was performed in triplicate on at least two separate runs, with 1 run simultaneously in triplicate on the same plate. The significance of the difference between mean values for each congener vs. mean values for compound 1 was determined by an analysis of variance.

CC(=O)NC1C(O[C@@H]2OC(CO)[C@H](O)C(O)C2O)[C@@H](O)C(CO)O[C@@H]1OC(C)[C@H](N)C(=O)NC(C(=O)N1CCCC1C(=O)NC(C)C(=O)N[C@@H](C)C(=O)NC(C(=O)N[C@H](C(=O)NC(C(=O)N[C@@H](C)C(=O)O)C(C)C)C(C)C)C(C)C)C(C)C (stereo in doubt) [Derivative 8, GalGalNAc-TV(D-proline)AAVVVA]
inhibition of APF antiproliferative activity [1]: blocked APF antiproliferative activity | inhibition of APF antiproliferative activity ([1]; listed as D-proline APF): inhibit the effect of as-APF on normal bladder epithelial cell proliferation; also recorded: inhibited this activity in nanomolar concentrations in a dose-dependent manner | antiproliferative activity compared with as-APF (1), in words [2]: completely abolished activity | antiproliferative activity compared with as-APF (1), in words ([2]; listed as D-proline APF): Neither D-proline APF nor D-pipecolic acid APF had any intrinsic antiproliferative activity | % of activity ([2]; relative to 1 (as-APF) run on the same plate, from IC50, inactive = no significant activity at <25 μM): inactive
